Measured values as given in PubChem BioAssay AID1963836 (Molecular Pharmacology Branch, DTP, NCI, 2024).

System: 857933-349-R-J2-PDC complex spheroid viability
Test: Anticancer human tumor 857933-349-R-J2-PDC patient-derived colon adenocarcinoma cell line growth inhibition [POLQ]
Settings: for IC50: curve of first compound; for viability, T/C: stronger effect = lower value
Outline: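 Patient-derived tumour cells were co-cultured with HUVEC and mesenchymal stem cells as multicellular spheroids at 37 °C. They were treated with POLQ inhibitors (novobiocin, ART-558, RP6685) alone or combined with other agents. Top concentrations were at or near clinical Cmax (otherwise 10 microM; SN-38 at 1 microM), decreasing in half-log steps.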

[1] = second compound 0.0316 µM, first compound 0.0316 µM
[2] = second compound 0.0316 µM, first compound 0.1 µM
[3] = second compound 0.0316 µM, first compound 0.316 µM
[4] = second compound 0.0316 µM, first compound 1 µM
[5] = second compound 0.0316 µM, first compound 3.16 µM
[6] = second compound 0.0316 µM, first compound 10 µM
[7] = second compound 0.1 µM, first compound 0.0316 µM
[8] = second compound 0.1 µM, first compound 0.1 µM
[9] = second compound 0.1 µM, first compound 0.316 µM
[10] = second compound 0.1 µM, first compound 1 µM
[11] = second compound 0.1 µM, first compound 3.16 µM
[12] = second compound 0.1 µM, first compound 10 µM
[13] = second compound 0.316 µM, first compound 0.0316 µM
[14] = second compound 0.316 µM, first compound 0.1 µM
[15] = second compound 0.316 µM, first compound 0.316 µM
[16] = second compound 0.316 µM, first compound 1 µM
[17] = second compound 0.316 µM, first compound 3.16 µM
[18] = second compound 0.316 µM, first compound 10 µM
[19] = second compound 1 µM, first compound 0.0316 µM
[20] = second compound 1 µM, first compound 0.1 µM
[21] = second compound 1 µM, first compound 0.316 µM
[22] = second compound 1 µM, first compound 1 µM
[23] = second compound 1 µM, first compound 3.16 µM
[24] = second compound 1 µM, first compound 10 µM
[25] = second compound 3.16 µM, first compound 0.0316 µM
[26] = second compound 3.16 µM, first compound 0.1 µM
[27] = second compound 3.16 µM, first compound 0.316 µM
[28] = second compound 3.16 µM, first compound 1 µM
[29] = second compound 3.16 µM, first compound 3.16 µM
[30] = second compound 3.16 µM, first compound 10 µM
[31] = second compound 10 µM, first compound 0.0316 µM
[32] = second compound 10 µM, first compound 0.1 µM
[33] = second compound 10 µM, first compound 0.316 µM
[34] = second compound 10 µM, first compound 1 µM
[35] = second compound 10 µM, first compound 3.16 µM
[36] = second compound 10 µM, first compound 10 µM
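Also: spheroids exposed to compounds for seven days before readout.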

For `CC1COCCN1c1cc(-c2ccnn2C)c2ccnc(-c3ccn[nH]3)c2n1` (stereo unspecified) + COC1C(OC(N)=O)C(O)C(Oc2ccc3c(O)c(NC(=O)c4ccc(O)c(CC=C(C)C)c4)c(=O)oc3c2C)OC1(C)C, the IC50 (second compound 0.0316 µM) was 209 nM, the IC50 (second compound 0.1 µM) was 282 nM and the IC50 (second compound 0.316 µM) was 157 nM. It also gave an IC50 (second compound 1 µM) of 257 nM, an IC50 (second compound 3.16 µM) of 170 nM and an IC50 (second compound 10 µM) of 311 nM. The viability, T/C [1] was 89.2%, the viability, T/C [2] was 66.2% and the viability, T/C [3] was 40.3%. It also gave a viability, T/C [4] of 35.8%, a viability, T/C [5] of 39.2% and a viability, T/C [6] of 48.6%. For the same compound, the viability, T/C [7] was 80.3%, the viability, T/C [8] was 77.6% and the viability, T/C [9] was 47.2%. For the same compound, the viability, T/C [10] was 30.7%, the viability, T/C [11] was 41.6% and the viability, T/C [12] was 52.8%. The viability, T/C [13] was 71.9%, the viability, T/C [14] was 55.7% and the viability, T/C [15] was 41.2%. For the same compound, the viability, T/C [16] was 37.1%, the viability, T/C [17] was 34.2% and the viability, T/C [18] was 51.7%. It also gave a viability, T/C [19] of 58.1%, a viability, T/C [20] of 73.3% and a viability, T/C [21] of 46.4%. It also gave a viability, T/C [22] of 33.6%, a viability, T/C [23] of 56.2% and a viability, T/C [24] of 50%. It also gave a viability, T/C [25] of 76.4%, a viability, T/C [26] of 57.5% and a viability, T/C [27] of 40.6%. For the same compound, the viability, T/C [28] was 37%, the viability, T/C [29] was 38% and the viability, T/C [30] was 48.7%. The viability, T/C [31] was 65.2%, the viability, T/C [32] was 63.2% and the viability, T/C [33] was 50.1%. It also gave a viability, T/C [34] of 39.2%, a viability, T/C [35] of 49.1% and a viability, T/C [36] of 50.3%.

In the case of `CC1COCCN1c1cc(-c2ccnn2C)c2ccnc(-c3ccn[nH]3)c2n1` (stereo unspecified) + Nc1ccc(C#CCN(C(=O)Cc2ncc(C(F)(F)F)cc2C(F)(F)F)c2ccc(F)cc2)nn1, the IC50 (second compound 0.0316 µM) is reported as 812 nM, the IC50 (second compound 0.1 µM) is reported as 495 nM and the IC50 (second compound 0.316 µM) is reported as 739 nM. The IC50 (second compound 1 µM) was 445 nM, the IC50 (second compound 3.16 µM) was 272 nM and the IC50 (second compound 10 µM) was 648 nM. For the same compound, the viability, T/C [1] was 76.4%, the viability, T/C [2] was 65.6% and the viability, T/C [3] was 62.1%. The viability, T/C [4] was 50.3%, the viability, T/C [5] was 32.5% and the viability, T/C [6] was 43.8%. The viability, T/C [7] was 71.5%, the viability, T/C [8] was 65.3% and the viability, T/C [9] was 53%. For the same compound, the viability, T/C [10] was 47.9%, the viability, T/C [11] was 30.9% and the viability, T/C [12] was 42.8%. The viability, T/C [13] was 81.1%, the viability, T/C [14] was 78.5% and the viability, T/C [15] was 56.2%. For the same compound, the viability, T/C [16] was 51.4%, the viability, T/C [17] was 37.3% and the viability, T/C [18] was 41.3%. It also gave a viability, T/C [19] of 74.9%, a viability, T/C [20] of 61.9% and a viability, T/C [21] of 51.5%. The viability, T/C [22] was 49%, the viability, T/C [23] was 36.9% and the viability, T/C [24] was 45.6%. The viability, T/C [25] was 76.4%, the viability, T/C [26] was 68.2% and the viability, T/C [27] was 47.4%. It also gave a viability, T/C [28] of 42.9%, a viability, T/C [29] of 42.8% and a viability, T/C [30] of 46.7%. It also gave a viability, T/C [31] of 78.2%, a viability, T/C [32] of 62.1% and a viability, T/C [33] of 54.8%. The viability, T/C [34] was 45.3%, the viability, T/C [35] was 47.2% and the viability, T/C [36] was 45.5%.

`CC(C)n1c(=O)n(C)c2cnc3cc(F)c(-c4ccc(OCCCN5CCCCC5)nc4)cc3c21` + Cc1cccc(N(C)C(=O)C2C(O)CCN2c2nc(C)cc(C(F)(F)F)c2C#N)c1 gave an IC50 (second compound 0.0316 µM) of over 10000 nM, an IC50 (second compound 0.1 µM) of over 10000 nM and an IC50 (second compound 0.316 µM) of over 10000 nM. For the same compound, the IC50 (second compound 1 µM) was over 10000 nM, the IC50 (second compound 3.16 µM) was over 10000 nM and the IC50 (second compound 10 µM) was over 10000 nM. The viability, T/C [1] was 106%, the viability, T/C [2] was 78.1% and the viability, T/C [3] was 90.2%. The viability, T/C [4] was 113%, the viability, T/C [5] was 107% and the viability, T/C [6] was 69.8%. The viability, T/C [7] was 97.7%, the viability, T/C [8] was 107% and the viability, T/C [9] was 98.9%. For the same compound, the viability, T/C [10] was 105%, the viability, T/C [11] was 87% and the viability, T/C [12] was 68.5%. It also gave a viability, T/C [13] of 97.2%, a viability, T/C [14] of 94.3% and a viability, T/C [15] of 104%. The viability, T/C [16] was 94.9%, the viability, T/C [17] was 105% and the viability, T/C [18] was 88%. The viability, T/C [19] was 80.7%, the viability, T/C [20] was 73.8% and the viability, T/C [21] was 92.6%. It also gave a viability, T/C [22] of 110%, a viability, T/C [23] of 114% and a viability, T/C [24] of 66.9%. It also gave a viability, T/C [25] of 83.6%, a viability, T/C [26] of 89.2% and a viability, T/C [27] of 116%. It also gave a viability, T/C [28] of 79.3%, a viability, T/C [29] of 102% and a viability, T/C [30] of 75%. The viability, T/C [31] was 73.2%, the viability, T/C [32] was 65.9% and the viability, T/C [33] was 87.9%. The viability, T/C [34] was 97.3%, the viability, T/C [35] was 106% and the viability, T/C [36] was 64.5%.
